Measurements reported in the NIST ThermoML archive (doi:10.1016/j.tca.2019.178383).
Numbers after ± are expanded uncertainties.

Tests used:
[1] = for surface tension liquid-gas: Maximal bubble pressure; for mass density: 100 kPa, Liquid, Vibrating tube method
[2] = xn = mol fraction of the nth substance listed; settings: x2 = 0; for surface tension liquid-gas: Maximal bubble pressure; for mass density: 100 kPa, Liquid, Vibrating tube method

Compound	surface tension liquid-gas ([1]; 288.15 K) [mN/m]	mass density ([1]; 288.15 K) [kg/m3]	surface tension liquid-gas ([1]; 293.15 K) [mN/m]	mass density ([1]; 293.15 K) [kg/m3]	surface tension liquid-gas ([1]; 298.15 K) [mN/m]	mass density ([1]; 298.15 K) [kg/m3]	surface tension liquid-gas ([1]; 303.15 K) [mN/m]	mass density ([1]; 303.15 K) [kg/m3]	surface tension liquid-gas ([1]; 308.15 K) [mN/m]	mass density ([1]; 308.15 K) [kg/m3]	surface tension liquid-gas ([1]; 313.15 K) [mN/m]	mass density ([1]; 313.15 K) [kg/m3]	surface tension liquid-gas ([1]; 318.15 K) [mN/m]	mass density ([1]; 318.15 K) [kg/m3]	surface tension liquid-gas ([2]; 288.15 K) [mN/m]	mass density ([2]; 288.15 K) [kg/m3]	surface tension liquid-gas ([2]; 293.15 K) [mN/m]	mass density ([2]; 293.15 K) [kg/m3]	surface tension liquid-gas ([2]; 298.15 K) [mN/m]	mass density ([2]; 298.15 K) [kg/m3]	other results
CCn1cc[n+](CCOC)c1.O=S(=O)([O-])C(F)(F)F	36.3 ± 1.5	1348.94 ± 1.4	36.1 ± 1.5	1344.66 ± 1.4	35.8 ± 1.5	1340.41 ± 1.4	35.5 ± 1.5	1336.17 ± 1.4	35.3 ± 1.5	1331.96 ± 1.4	35.1 ± 1.5	1327.77 ± 1.4	34.9 ± 1.5	1323.6 ± 1.4							
CCO [ethanol]	21.9 ± 1.5	794.308 ± 1.3	21.4 ± 1.5	790.041 ± 1.3	20.9 ± 1.5	785.746 ± 1.3	20.5 ± 1.5	781.43 ± 1.3	20 ± 1.5	777.078 ± 1.3	19.5 ± 1.5	772.688 ± 1.3	19 ± 1.5	768.257 ± 1.3							
CCO [ethanol] + CCn1cc[n+](CCOC)c1.O=S(=O)([O-])C(F)(F)F															21.9 ± 1.5	794.308 ± 1.3	21.4 ± 1.5	790.041 ± 1.3	20.9 ± 1.5	785.746 ± 1.3	surface tension liquid-gas ([2]; 303.15 K): 20.5 ± 1.5 mN/m; mass density ([2]; 303.15 K): 781.43 ± 1.3 kg/m3; surface tension liquid-gas ([2]; 308.15 K): 20 ± 1.5 mN/m; mass density ([2]; 308.15 K): 777.078 ± 1.3 kg/m3; surface tension liquid-gas ([2]; 313.15 K): 19.5 ± 1.5 mN/m; mass density ([2]; 313.15 K): 772.688 ± 1.3 kg/m3; surface tension liquid-gas ([2]; 318.15 K): 19 ± 1.5 mN/m; mass density ([2]; 318.15 K): 768.257 ± 1.3 kg/m3
CCCO [propan-1-ol]	22.9 ± 1.5	807.507 ± 1.3	22.5 ± 1.5	803.519 ± 1.3	22.1 ± 1.5	799.514 ± 1.3	21.8 ± 1.5	795.48 ± 1.3	21.4 ± 1.5	791.416 ± 1.3	21 ± 1.5	787.306 ± 1.3	20.6 ± 1.5	783.149 ± 1.3							
CCCO [propan-1-ol] + CCn1cc[n+](CCOC)c1.O=S(=O)([O-])C(F)(F)F															22.9 ± 1.5	807.507 ± 1.3	22.5 ± 1.5	803.519 ± 1.3	22.1 ± 1.5	799.514 ± 1.3	surface tension liquid-gas ([2]; 303.15 K): 21.8 ± 1.5 mN/m; mass density ([2]; 303.15 K): 795.48 ± 1.3 kg/m3; surface tension liquid-gas ([2]; 308.15 K): 21.4 ± 1.5 mN/m; mass density ([2]; 308.15 K): 791.416 ± 1.3 kg/m3; surface tension liquid-gas ([2]; 313.15 K): 21 ± 1.5 mN/m; mass density ([2]; 313.15 K): 787.306 ± 1.3 kg/m3; surface tension liquid-gas ([2]; 318.15 K): 20.6 ± 1.5 mN/m; mass density ([2]; 318.15 K): 783.149 ± 1.3 kg/m3
CC(C)O [propan-2-ol]	20.6 ± 1.5	789.224 ± 1.3	20.2 ± 1.5	785.088 ± 1.3	19.8 ± 1.5	780.887 ± 1.3	19.5 ± 1.5	776.617 ± 1.3	19.1 ± 1.5	772.266 ± 1.3	18.7 ± 1.5	767.829 ± 1.3	18.4 ± 1.5	763.293 ± 1.3							
CC(C)O [propan-2-ol] + CCn1cc[n+](CCOC)c1.O=S(=O)([O-])C(F)(F)F															20.6 ± 1.5	789.224 ± 1.3	20.2 ± 1.5	785.088 ± 1.3	19.8 ± 1.5	780.887 ± 1.3	surface tension liquid-gas ([2]; 303.15 K): 19.5 ± 1.5 mN/m; mass density ([2]; 303.15 K): 776.617 ± 1.3 kg/m3; surface tension liquid-gas ([2]; 308.15 K): 19.1 ± 1.5 mN/m; mass density ([2]; 308.15 K): 772.266 ± 1.3 kg/m3; surface tension liquid-gas ([2]; 313.15 K): 18.7 ± 1.5 mN/m; mass density ([2]; 313.15 K): 767.829 ± 1.3 kg/m3; surface tension liquid-gas ([2]; 318.15 K): 18.4 ± 1.5 mN/m; mass density ([2]; 318.15 K): 763.293 ± 1.3 kg/m3
